The test system of assay [1] is urothelial tumor cell line T24. The assay is described as follows: Phage attachment to subconfluent cell monolayer. It is filed as cell-based, human. Conditions: 1x10^8 T.U. per well. An excerpt: FIG. 7. Binding of selected phage clones to the human breast cancer cell line MDA-MBA435 (white bars) as well as the urothelial tumor cell lines T24 (light grey bars) and RT4 (dark grey bars). Insertless fd-tet phage were included as controls. Results are given as mean of triplicate wells relative to binding of fd-tet phage, that was set as 1. Input of phage was 1×10^8 T.U. per well. Bound phage were detected after intensive washing by infection with log phase K91 bacteria and plating of serial dilutions.
Binding of selected phage was examined with human adherent primary urothelial cells, the breast cancer cell line MDA-MB-435 and the transitional carcinoma cell lines RT4 and T24. All cells were grown to subconfluency in 48 well plates and free binding sites were blocked with 800 μl 30% FCS/DMEM (blocking medium) for 1 hour at 37° C. The blocking solution was then replaced by 200 μl 10% FCS/DMEM (washing medium) containing 1×10^8 cfu of each phage per well. After incubation for 2 hours at 4° C. to prevent unspecific endocytosis, unbound phage were removed by washing 7 times with 500 μl washing medium. For competition experiments increasing concentrations of the corresponding peptide or a control peptide (CARAC, SEQ ID NO:5) were added during the incubation. Bound phage were determined by infection with 500 μl log phase K91 culture and plating of serial dilutions. […]

Assay [2] deals with human bone marrow cells. The assay is described as follows: Binding of single phage clones to bone marrow cells by BRASIL. It is filed as cell-based. The settings on record: single phage clone; negative control fd-tet phage, positive control RGD-4C phage. An excerpt: Fresh human ribs removed during surgery for access to underlying tumors were sectioned to expose the bone marrow surface. No significant damage to the bone marrow was inflicted to the tissue and the morphology was well preserved during after the procedure. The bone samples were washed (gently) 5 times with ice cold DMEM/0.15% BSA (sterile filtered). The marrow was removed by gently scraping cells from the bone. Cells were washed twice by centrifugation and resuspension in DMEM/BSA to remove debris and fat. Cells were resuspended in DMEM/BSA (about 10^7 cells per ml) and incubated with a phage display library (10^9 TU) prepared as described above. After incubation for 3 hours on ice, the cells were centrifuged through an organic phase consisting of a 9:1 mixture of dibutylphthalate:cyclohexane. Centrifugation occurred for 10 min at 10,000×g. The bottom of the centrifuge tube was snap frozen at −80° C. and phage were recovered by bacterial infection as described above. The selection was repeated for 3 more rounds of BRASIL and 90 clones were sequenced.
A system has been designed to analyze the data resulting from peptide library screenings, adapted from the SAS package. The system is available upon request from the M. D. Anderson Cancer Center. […] The positive control was phage containing an RGD-4C insert, which is known to bind to bone marrow. […]

For assay [3], the system named is porcine bladder mucosa. The assay is described as follows: Dot blot chamber assay after removal of the GAG-layer. Format: cell-based. Conditions: 0.1M HCl for 2 min; relative to untreated mucosa set to 1. How it is done:
FIG. 10. Influence of the GAG-layer on phage binding. In the dot blot chamber assay portions of a porcine bladder mucosa were treated with 0.1M HCl for 2 min prior to remove the GAG-layer. Binding to treated surface is given relative to untreated surface, that was set as 1. Bound phage were detected after intensive washing by infection with log phase K91 bacteria and plating of serial dilutions.
(§1) Removal of the glucosaminoglycan- (GAG-) layer on intact mucosa samples was performed as a dot blot chamber assay. Half of the wells were incubated with 200 μl 0.1M HCl per well for 2 min, intensely rinsed with blocking solution and both parts blocked as before. Results are given relative to fd-tet phage to untreated mucosa, that was set to 1.
(§2) Using the same assay the influence of the glucosaminoglycan (GAG) layer on binding of several phage to intact mucosa was examined. The GAG-layer was removed as described above. Half of the mucosa of human ureter and porcine bladder specimens were treated inside the dot blot chamber with […] for 2 min, extensively washed and the binding assay performed as before.

Assay [4] concerns human ureter mucosa. The description is as above. It is filed as cell-based. The settings on record: human ureter sample. As for the experimental part: as §1, §2
Assay [5] concerns leptin. The settings on record: cited from earlier work.
Assay [6] has as its target BSA (bovine serum albumin) (bovine, UniProt P02769 25-607). Description: phage binding to immobilized protein, recovery by bacterial infection.
Assay [7] addresses T1, recombinant rat NRP-1/Fc (rat; human, UniProt Q9QWJ9 22-854, limits assumed).
T1 construct: Bought receptor/Fc chimera; also called rat Neuropilin-1; neuropilin-1; not shown: Fc region of human IgG1
T1 sequence (looked up): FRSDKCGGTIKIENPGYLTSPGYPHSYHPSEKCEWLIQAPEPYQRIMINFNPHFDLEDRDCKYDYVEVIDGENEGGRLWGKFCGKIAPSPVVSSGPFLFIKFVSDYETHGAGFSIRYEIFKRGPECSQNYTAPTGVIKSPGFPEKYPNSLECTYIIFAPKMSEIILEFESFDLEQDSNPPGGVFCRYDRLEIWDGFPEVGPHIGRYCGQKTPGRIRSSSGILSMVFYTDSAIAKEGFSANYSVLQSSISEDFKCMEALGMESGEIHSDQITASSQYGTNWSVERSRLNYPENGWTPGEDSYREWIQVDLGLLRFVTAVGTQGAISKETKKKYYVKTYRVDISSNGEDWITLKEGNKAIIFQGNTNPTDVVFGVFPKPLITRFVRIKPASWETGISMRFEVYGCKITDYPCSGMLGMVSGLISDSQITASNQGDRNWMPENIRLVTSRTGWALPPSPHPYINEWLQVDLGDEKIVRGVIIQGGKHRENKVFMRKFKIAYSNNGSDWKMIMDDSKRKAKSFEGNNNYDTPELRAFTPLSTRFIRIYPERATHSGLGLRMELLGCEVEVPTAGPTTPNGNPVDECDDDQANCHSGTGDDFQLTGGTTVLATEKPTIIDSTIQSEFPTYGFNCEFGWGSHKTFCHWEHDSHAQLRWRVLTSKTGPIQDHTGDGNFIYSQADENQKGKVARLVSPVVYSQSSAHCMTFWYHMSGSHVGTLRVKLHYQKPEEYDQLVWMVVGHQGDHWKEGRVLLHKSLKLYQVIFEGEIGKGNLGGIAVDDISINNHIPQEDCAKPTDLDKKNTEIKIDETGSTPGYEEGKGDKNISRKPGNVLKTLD
The assay is described as follows: phage binding to immobilized receptor, recovery by bacterial infection. How it is done: (§3) Human VEGFR-1, human VEGFR-2, rat NRP-1, and rat NRP-2 (1 μg in 50 μl of PBS) were immobilized on microtiter well plates overnight at 4° C. The wells were washed twice with PBS, blocked with PBS containing 3% BSA for 2 h at room temperature, and then incubated with 10⁹ TU of either […] […] (SEQ ID NO:11) phage, or fd-tet phage in 50 μl of PBS/1.5% BSA. After 1 hr at room temperature, wells were washed nine times with PBS and phage were recovered by bacterial infection. Serial dilutions were plated onto Luria-Bertani (LB) medium supplemented with tetracycline. VEGF₁₆₅, PDGF-BB, or synthetic peptides were used at the indicated concentrations and pre-incubated with the immobilized proteins to evaluate competitive inhibition of phage binding.

The target in assay [8] is T2, recombinant human VEGFR-2/Fc (human, UniProt P35968 20-764).
T2 construct: Bought receptor/Fc chimera; not shown: Fc region of human IgG1
T2 sequence (P35968 20-764 limits assumed): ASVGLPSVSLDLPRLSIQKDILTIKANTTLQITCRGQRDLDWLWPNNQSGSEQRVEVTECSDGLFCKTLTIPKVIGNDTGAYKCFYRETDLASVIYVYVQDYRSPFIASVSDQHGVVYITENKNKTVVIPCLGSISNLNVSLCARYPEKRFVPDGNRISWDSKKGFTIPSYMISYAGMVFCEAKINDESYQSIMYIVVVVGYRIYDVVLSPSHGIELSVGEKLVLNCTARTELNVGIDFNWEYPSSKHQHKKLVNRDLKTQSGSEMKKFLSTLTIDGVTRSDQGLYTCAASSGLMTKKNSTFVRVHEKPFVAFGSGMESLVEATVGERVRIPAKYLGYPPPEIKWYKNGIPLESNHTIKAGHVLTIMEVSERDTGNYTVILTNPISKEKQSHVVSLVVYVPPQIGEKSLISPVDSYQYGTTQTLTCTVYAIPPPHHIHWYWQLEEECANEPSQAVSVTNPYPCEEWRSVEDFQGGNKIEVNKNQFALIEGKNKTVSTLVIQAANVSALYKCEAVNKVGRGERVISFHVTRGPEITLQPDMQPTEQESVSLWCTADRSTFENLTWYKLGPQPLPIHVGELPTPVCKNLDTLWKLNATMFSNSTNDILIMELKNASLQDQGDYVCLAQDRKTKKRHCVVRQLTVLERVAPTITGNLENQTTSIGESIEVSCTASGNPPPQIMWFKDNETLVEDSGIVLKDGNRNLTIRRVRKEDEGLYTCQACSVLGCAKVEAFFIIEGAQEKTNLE
The assay is described as above. How it is done: as §3

Assay [9] has as its target T3, recombinant rat NRP-2/Fc (rat; human, UniProt O35276 23-858, limits assumed).
T3 construct: Bought receptor/Fc chimera; also called neutropilin-2 (NRP-2) receptor; not shown: Fc region of human IgG1
T3 sequence (looked up): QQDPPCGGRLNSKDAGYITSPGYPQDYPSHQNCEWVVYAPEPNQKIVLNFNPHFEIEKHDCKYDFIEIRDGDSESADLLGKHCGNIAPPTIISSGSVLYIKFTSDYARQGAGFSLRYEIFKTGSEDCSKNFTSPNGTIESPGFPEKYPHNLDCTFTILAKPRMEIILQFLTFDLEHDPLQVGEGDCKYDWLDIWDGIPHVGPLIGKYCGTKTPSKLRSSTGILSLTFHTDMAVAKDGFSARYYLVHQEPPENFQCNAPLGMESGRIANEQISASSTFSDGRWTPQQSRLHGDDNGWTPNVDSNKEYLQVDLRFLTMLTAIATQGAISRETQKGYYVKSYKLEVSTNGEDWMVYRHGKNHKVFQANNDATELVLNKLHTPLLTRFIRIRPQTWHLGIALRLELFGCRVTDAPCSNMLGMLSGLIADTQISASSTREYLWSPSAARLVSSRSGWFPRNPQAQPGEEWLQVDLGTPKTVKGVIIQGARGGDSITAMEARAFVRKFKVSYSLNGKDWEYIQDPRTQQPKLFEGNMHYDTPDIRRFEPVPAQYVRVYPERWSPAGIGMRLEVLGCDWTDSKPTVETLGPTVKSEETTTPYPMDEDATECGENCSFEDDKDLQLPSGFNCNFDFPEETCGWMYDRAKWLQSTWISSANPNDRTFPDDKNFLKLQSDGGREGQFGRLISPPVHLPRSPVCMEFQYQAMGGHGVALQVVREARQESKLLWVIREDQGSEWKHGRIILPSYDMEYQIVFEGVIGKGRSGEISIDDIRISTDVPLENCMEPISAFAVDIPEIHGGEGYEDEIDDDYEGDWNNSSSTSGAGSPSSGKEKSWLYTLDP
The description is as above. As for the experimental part:
as §3

Assay [10] concerns the target T4, recombinant human VEGFR-1 (human, UniProt P17948 27-758, limits assumed).
T4 construct: Bought; immobilized on microtiter wells (1 ug in 50 ul PBS); also called Flt1
Description: phage binding to immobilized receptor, against insertless fd-tet phage (not shown). How it is done:
as §3

Ends that are not written are not given here.

T4 sequence (P17948 27-758 limits assumed): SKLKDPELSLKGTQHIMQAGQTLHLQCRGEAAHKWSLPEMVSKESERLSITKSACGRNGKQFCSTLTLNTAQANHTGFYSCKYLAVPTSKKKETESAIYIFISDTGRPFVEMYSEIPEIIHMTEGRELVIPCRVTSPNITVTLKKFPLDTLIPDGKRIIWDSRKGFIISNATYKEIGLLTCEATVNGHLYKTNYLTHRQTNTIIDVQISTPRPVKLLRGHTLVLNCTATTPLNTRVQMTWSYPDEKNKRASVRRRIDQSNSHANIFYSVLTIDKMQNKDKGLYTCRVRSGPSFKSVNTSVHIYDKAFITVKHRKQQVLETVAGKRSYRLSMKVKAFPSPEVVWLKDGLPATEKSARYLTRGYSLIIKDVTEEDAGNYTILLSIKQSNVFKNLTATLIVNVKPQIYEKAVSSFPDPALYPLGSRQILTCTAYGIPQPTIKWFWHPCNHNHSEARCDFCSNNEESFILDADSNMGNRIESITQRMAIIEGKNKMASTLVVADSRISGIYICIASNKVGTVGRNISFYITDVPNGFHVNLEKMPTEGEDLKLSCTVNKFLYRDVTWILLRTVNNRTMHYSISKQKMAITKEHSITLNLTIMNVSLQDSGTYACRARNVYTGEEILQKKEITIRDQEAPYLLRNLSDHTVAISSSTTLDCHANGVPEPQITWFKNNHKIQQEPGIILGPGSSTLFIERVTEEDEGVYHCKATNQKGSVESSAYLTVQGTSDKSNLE
Chain of BSA (bovine serum albumin) (P02769 25-607 limits assumed): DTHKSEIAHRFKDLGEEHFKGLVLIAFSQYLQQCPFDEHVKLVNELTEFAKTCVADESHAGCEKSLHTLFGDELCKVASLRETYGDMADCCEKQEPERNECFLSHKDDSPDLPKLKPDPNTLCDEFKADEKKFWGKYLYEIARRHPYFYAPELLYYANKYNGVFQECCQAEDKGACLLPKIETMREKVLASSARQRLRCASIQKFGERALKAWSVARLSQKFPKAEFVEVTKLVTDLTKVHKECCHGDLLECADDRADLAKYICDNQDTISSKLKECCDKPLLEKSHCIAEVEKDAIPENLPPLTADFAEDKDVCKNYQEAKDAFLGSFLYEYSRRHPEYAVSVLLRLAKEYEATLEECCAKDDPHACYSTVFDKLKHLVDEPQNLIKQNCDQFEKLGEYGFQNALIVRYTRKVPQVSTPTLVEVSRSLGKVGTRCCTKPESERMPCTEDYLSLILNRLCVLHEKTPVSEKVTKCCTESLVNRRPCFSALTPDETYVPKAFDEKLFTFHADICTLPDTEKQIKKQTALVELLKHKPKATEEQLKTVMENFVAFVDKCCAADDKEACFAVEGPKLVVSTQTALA

As to CGQEISGLC, the “binding to T24 tumor cells” value in [1] is on record as “bound”.
CLGWRAAAC: the “binding to human bone marrow cells” value in assay [2] is “over twice as high as the positive control”.
Take CWGGLSGLC: the “increase of phage binding after GAG-removal” value in assay [3] is 4.2 fold; in [4] it was 3.4 fold.
With DLLHLLAFSKSCSLLP, the “leptin activity in vivo” value in assay [5] is recorded as “block leptin activity”.

B1: phage clone-19 displaying the peptide CPQPRPLC (SEQ ID NO:6) (peptide)
peptide: CPQPRPLC
modifications: not fully specified (bridges); cysteine pairing not given here; also: displayed on pIII of filamentous phage
notes: Tested as whole filamentous phage (10^9 TU per well), not as free peptide; The peptide is expressed in the pIII protein; also called clone 19 phage; not shown: The phage pIII coat protein that carries the insert, and the residues flanking the insert
Take B1: the binding result is “no binding (tested: 10^9 TU of phage in 50 ul)” in [6], “binds” in assay [7], “no binding (tested: 10^9 TU of phage in 50 ul)” in [8] and “no binding (tested: 10^9 TU of phage in 50 ul)” in [9]. For the same molecule, the “fold enrichment of binding over fd-tet phage” value in assay [10] is over 1000 fold.

Values taken from patent US20080176792A1, “VEGFR-1 TARGETING PEPTIDES” (priority 2000, published 2008).
